Here are results for 28 compounds from patent US4416871A, “Inhibition by peptides of tolerance to and physical dependence on morphine” (The United States of America as represented by the …, priority 1982, dated 1983).

Entries after “also recorded” stand apart in the source; their conditions may differ. Non-standard residues stand in square brackets, D forms with d. Residues, ends and D or L forms follow the SMILES beside them. No end group written: not given here. *: point of attachment. pGlu = O=C1CC[C@@H](C(=O)O)N1; Cbz = O=C(OCc1ccccc1)* Bounds are passed on as bounds.

The conditions of experiment [1]: literature, Life Sci., 19, 1331-1340; cited from earlier work.
Experiment [2] concerns morphine-dependent mice. Briefly: Naloxone-precipitated withdrawal: body temperature and withdrawal signs. In kind it is in vivo. The note with it: for Withdrawal, % of control (jumping, shakes, diarrhea) / Δt, °C. (difference in body temperature just prior to naloxone and 30 min. thereafter): Table II, peptide 50 μg per mouse, naloxone 0.1 mg/kg; for Δt, °C. (difference in body temperature just prior to naloxone and 30 min. thereafter): mean ± SD; for Withdrawal, % of control / Δt, °C. / lowest dose still effective in blocking physical dependence on morphine: Table III; for Withdrawal, % of control / Δt, °C.: dose 50 μg; for lowest dose still effective in blocking physical dependence on morphine: dose-response experiments; for ability to block development of physical dependence on morphine: naloxone-precipitated withdrawal, Tables II and III. As for the experimental part:
The mice were randomly divided into two groups. One received SC injections of water (vehicle) while the other received the peptide under investigation (50 μg/mouse on day one). Two hours later the mice were further subdivided and each subgroup was implanted with placebo or morphine pellets. The injections of vehicle and peptide were repeated 24 and 48 hours after the first injection in their respective groups. Morphine pellets containing 75 mg of morphine free base were implanted subcutaneously (SC) between 10-11 A.M. and were removed 3 days later at the same time. The control animals were implanted with placebo pellets. Body temperature and weight were measured daily at 11 A.M. Temperature was measured using a lubricated rectal probe inserted 2.5 cm into the rectum and measured with a telethermometer (Model 43TA Yellow Springs Instrument Co., Yellow Springs, Ohio).
To determine the effects of peptide treatment on the development of physical dependence, the abstinence syndrome was precipitated using the morphine antagonist naloxone (Endo Laboratories Inc., N.Y.) at the appropriate dose (0.1, 0.25, or 0.50 mg/kg) injected intraperitoneally (IP) one hour following removal of morphine and placebo pellets. Pellet removal was performed 24 hours after the last peptide injection. These mice were monitored for changes in body temperature (see above) and body weight at 15 min. intervals for one hour after the naloxone injection. Effects of removing the pellets (withdrawing morphine) were also assessed by utilizing body temperature and weight as physical dependence parameters; however, these measurements were made at 2 hour intervals for 10 hours after the removal of the pellets. Placebo implanted mice were treated in the same manner as the morphine pellet implanted mice.

The test system of experiment [3] is morphine-dependent mice. Described as above. Format: in vivo. The note with it: Table III.

8-arginine vasotocin: the “relative potency in facilitating development of physical dependence on and tolerance to morphine” value (“relative potency” below) in experiment [1] is given as “more effective than 8-arginine vasopressin”.

Turning to `CC(C)C[C@@H]1NC(=O)[C@H](C)NC1=O` [Cyclo(Leu--Ala)], in experiment [2], the “Withdrawal, % of control (jumping, shakes, diarrhea)” value turned out to be 100%; the “Δt, °C. (difference in body temperature just prior to naloxone and 30 min. thereafter)” value is -1.80 ± 0.96 °C.

As to `CC(C)C[C@@H]1NC(=O)CNC1=O` [Cyclo(Leu--Gly), cyclo(leucyl-glycine)], in experiment [2], the “Withdrawal, % of control (jumping, shakes, diarrhea)” value was determined as 21%; the “Δt, °C. (difference in body temperature just prior to naloxone and 30 min. thereafter)” value was -0.02 ± 0.83 °C; the “Withdrawal, % of control” value is on record as 18%; the “Δt, °C.” value is -0.19 ± 0.58 °C. Also, in experiment [2], the “lowest dose still effective in blocking physical dependence on morphine” value is reported as no more than 0.05 μg per mouse and the “ability to block development of physical dependence on morphine” value (“ability to block development” below) is “showed significant activity; also recorded: most potent peptides tested”. In addition, in experiment [3] (dose 0.05 μg), the “Withdrawal, % of control” value is on record as 20% and the “Δt, °C.” value was “+0.27 ± 0.70 °C”. In experiment [3] (dose 0.5 μg), the “Withdrawal, % of control” value is reported as 0% and the “Δt, °C.” value is “+0.30 ± 0.29 °C”. Also, in experiment [3] (dose 5 μg), the “Withdrawal, % of control” value amounted to 0% and the “Δt, °C.” value is “+0.47 ± 0.32 °C”. Moreover, the “relative potency” value in experiment [1] is recorded as “as effective as oxytocin”.

For `CC(C)C[C@H]1NC(=O)[C@@H]2CCCN2C1=O` [Cyclo(Pro--D-Leu)], in experiment [2], the “Withdrawal, % of control (jumping, shakes, diarrhea)” value worked out at 40%; the “Δt, °C. (difference in body temperature just prior to naloxone and 30 min. thereafter)” value is -0.24 ± 1.06 °C.

Turning to `O=C1N[C@@H](Cc2ccccc2)C(=O)N2CCC[C@@H]12` [Cyclo(Pro--Phe)], in experiment [2], the “Withdrawal, % of control (jumping, shakes, diarrhea)” value came to 20%; the “Δt, °C. (difference in body temperature just prior to naloxone and 30 min. thereafter)” value is -0.13 ± 0.55 °C; the “ability to block development” value was “showed significant activity”.

For `CC(C)C[C@H](NC(=O)[C@@H]1CCCN1C(=O)CNC(=O)OCc1ccccc1)C(=O)NCC(=O)O` [Z-Gly--Pro--Leu--Gly--COOH] (Cbz-GPLG-OH), in experiment [2], the “Withdrawal, % of control (jumping, shakes, diarrhea)” value is recorded as 22%; the “Δt, °C. (difference in body temperature just prior to naloxone and 30 min. thereafter)” value is -0.07 ± 0.72 °C.

In the case of `CC(C)C[C@H](NC(=O)OCc1ccccc1)C(=O)NCC(N)=O` [Z-Leu--Gly--NH2] (Cbz-Leu-Gly-NH2), in experiment [2], the “Withdrawal, % of control (jumping, shakes, diarrhea)” value was found to be 70%; the “Δt, °C. (difference in body temperature just prior to naloxone and 30 min. thereafter)” value was -0.75 ± 0.72 °C.

As for `CC(C)C[C@H](NC(=O)[C@@H]1CCCN1C(=O)OCc1ccccc1)C(=O)NCC(=O)O` [Z-Pro--Leu--Gly--COOH] (Cbz-Pro-Leu-Gly-OH), in experiment [2], the “Withdrawal, % of control (jumping, shakes, diarrhea)” value was determined as 100%; the “Δt, °C. (difference in body temperature just prior to naloxone and 30 min. thereafter)” value was -1.20 ± 0.39 °C.

For the compound `CC(C)C[C@H](NC(=O)[C@@H]1CCCN1C(=O)OCc1ccccc1)C(N)=O` [Z-Pro--Leu--NH2] (Cbz-Pro-Leu-NH2), in experiment [2], the “Withdrawal, % of control (jumping, shakes, diarrhea)” value is 100%; the “Δt, °C. (difference in body temperature just prior to naloxone and 30 min. thereafter)” value is -0.95 ± 0.21 °C.

`CC(C)C[C@H](NC(=O)[C@@H]1CCC(=O)N1)C(=O)NCC(N)=O` [[Glu--Leu--Gly--NH2] ([pGlu]-Leu-Gly-NH2): in experiment [2], the “Withdrawal, % of control (jumping, shakes, diarrhea)” value came out at 44%; the “Δt, °C. (difference in body temperature just prior to naloxone and 30 min. thereafter)” value was -0.27 ± 0.72 °C.

With `CC[C@H](C)[C@@H]1NC(=O)[C@H](Cc2ccc(O)cc2)NC(=O)[C@@H](N)CSSC[C@@H](C(=O)N2CCC[C@H]2C(=O)N[C@@H](CC(C)C)C(=O)NCC(N)=O)NC(=O)[C@H](CC(N)=O)NC(=O)[C@H](CCC(N)=O)NC1=O` [oxytocin], the “relative potency” value in experiment [1] was “more effective than 8-arginine vasopressin”.

Consider Cbz-Ala-Pro, for which, in experiment [2], the “Withdrawal, % of control (jumping, shakes, diarrhea)” value was 100%; the “Δt, °C. (difference in body temperature just prior to naloxone and 30 min. thereafter)” value is -1.20 ± 0.21 °C.

For Cbz-Pro-Ala, in experiment [2], the “Withdrawal, % of control (jumping, shakes, diarrhea)” value came to 63%; the “Δt, °C. (difference in body temperature just prior to naloxone and 30 min. thereafter)” value is -0.74 ± 0.94 °C.

As for Cbz-Pro-Gln, in experiment [2], the “Withdrawal, % of control (jumping, shakes, diarrhea)” value was 0%; the “Δt, °C. (difference in body temperature just prior to naloxone and 30 min. thereafter)” value is “+0.08 ± 0.33 °C”.

Regarding Cbz-Pro-Glu, in experiment [2], the “Withdrawal, % of control (jumping, shakes, diarrhea)” value is reported as 45%; the “Δt, °C. (difference in body temperature just prior to naloxone and 30 min. thereafter)” value was -0.63 ± 0.88 °C.

As to Cbz-Pro-Gly, in experiment [2], the “Withdrawal, % of control (jumping, shakes, diarrhea)” value amounted to 69%; the “Δt, °C. (difference in body temperature just prior to naloxone and 30 min. thereafter)” value was -0.79 ± 0.78 °C.

Consider Cbz-Pro-Ile, for which, in experiment [2], the “Withdrawal, % of control (jumping, shakes, diarrhea)” value amounted to 78%; the “Δt, °C. (difference in body temperature just prior to naloxone and 30 min. thereafter)” value was -1.19 ± 0.91 °C.

As for Cbz-Pro-Leu, in experiment [2], the “Withdrawal, % of control (jumping, shakes, diarrhea)” value came to 22%; the “Δt, °C. (difference in body temperature just prior to naloxone and 30 min. thereafter)” value was “+0.08 ± 0.93 °C”; the “Withdrawal, % of control” value is given as 18%; the “Δt, °C.” value was “+0.08 ± 0.93 °C”. Further, in experiment [2], the “lowest dose still effective in blocking physical dependence on morphine” value is on record as 5 μg per mouse and the “ability to block development” value is reported as “exhibited activity”. For the same compound, in experiment [3] (dose 0.5 μg), the “Withdrawal, % of control” value was found to be 100% and the “Δt, °C.” value was -1.17 ± 0.17 °C. Further, in experiment [3] (dose 5 μg), the “Withdrawal, % of control” value is 0% and the “Δt, °C.” value is “+0.33 ± 0.26 °C”.

For Cbz-Pro-Met, in experiment [2], the “Withdrawal, % of control (jumping, shakes, diarrhea)” value stood at 0%; the “Δt, °C. (difference in body temperature just prior to naloxone and 30 min. thereafter)” value is “+0.17 ± 0.23 °C”.

On to Cbz-Pro-Phe, for which, in experiment [2], the “Withdrawal, % of control (jumping, shakes, diarrhea)” value was 89%. For the same compound, the “Δt, °C. (difference in body temperature just prior to naloxone and 30 min. thereafter)” value in experiment [2] is -1.03 ± 0.55 °C. In addition, the “Withdrawal, % of control” value in experiment [2] came to 99%; in experiment [3] (dose 0.05 μg), 100%; in experiment [3] (dose 0.5 μg), 100%; in experiment [3] (dose 5 μg), 100%. In addition, the “Δt, °C.” value in experiment [2] was -1.03 ± 0.55 °C; in experiment [3] (dose 0.05 μg), -1.60 ± 0.69 °C; in experiment [3] (dose 0.5 μg), -0.69 ± 0.22 °C; in experiment [3] (dose 5 μg) it was -0.69 ± 0.24 °C.

Cbz-Pro-Ser: in experiment [2], the “Withdrawal, % of control (jumping, shakes, diarrhea)” value stood at 39%; the “Δt, °C. (difference in body temperature just prior to naloxone and 30 min. thereafter)” value is -0.29 ± 0.73 °C.

Regarding Cbz-Pro-Tyr, in experiment [2], the “Withdrawal, % of control (jumping, shakes, diarrhea)” value came to 0%; the “Δt, °C. (difference in body temperature just prior to naloxone and 30 min. thereafter)” value is “+0.13 ± 0.31 °C”.

On to Cbz-Pro-Val, for which, in experiment [2], the “Withdrawal, % of control (jumping, shakes, diarrhea)” value is on record as 63%; the “Δt, °C. (difference in body temperature just prior to naloxone and 30 min. thereafter)” value is -0.44 ± 0.48 °C.

On to Cbz-[dP]-Leu, for which, in experiment [2], the “Withdrawal, % of control (jumping, shakes, diarrhea)” value worked out at 14%; the “Δt, °C. (difference in body temperature just prior to naloxone and 30 min. thereafter)” value was “+0.17 ± 0.71 °C”; the “ability to block development” value is “exhibited activity”.

Turning to Z-D-Pro--D-Leu, in experiment [2], the “Withdrawal, % of control (jumping, shakes, diarrhea)” value amounted to 0%; the “Δt, °C. (difference in body temperature just prior to naloxone and 30 min. thereafter)” value is “+0.10 ± 0.56 °C”; the “ability to block development” value is recorded as “exhibited activity”.

On to Z-Pro--D-Ala--DCHA, for which, in experiment [2], the “Withdrawal, % of control (jumping, shakes, diarrhea)” value was found to be 50%; the “Δt, °C. (difference in body temperature just prior to naloxone and 30 min. thereafter)” value was -0.55 ± 0.90 °C.

Z-Pro--Leu--Gly--N(CH3)2: in experiment [2], the “Withdrawal, % of control (jumping, shakes, diarrhea)” value came to 100%; the “Δt, °C. (difference in body temperature just prior to naloxone and 30 min. thereafter)” value was -0.47 ± 0.15 °C.

Turning to Z-Pro--ΔPhe, in experiment [2], the “Withdrawal, % of control (jumping, shakes, diarrhea)” value amounted to 22%; the “Δt, °C. (difference in body temperature just prior to naloxone and 30 min. thereafter)” value is -0.36 ± 0.58 °C.
